Measured values reported in patent publication US20040024000A1, “Dihydropyrimidine derivatives as cysteine protease inhibitors” (priority 2003, published 2004).

Key:
r rat cathepsin B = r rat cathepsin B (Rattus norvegicus, UniProt P00787); assay: In vitro assay for cathepsin B inhibition; assay type: biochemical; details: substrate N-CBZ-Phe-Arg-AMC, pH 5.1, 10 min preincubation
Protocol: The compounds of formula I were tested for inhibition of cathepsin B using the known method (A. J. Barret et al., Biochem. J. 1982, 201, 189-198). To a 170 μl of enzyme-buffer mixture (enzyme: r rat cathepsin B, diluted to give approximate 10 F units/min, buffer: 56 mM sodium acetate, 1.124 mM EDTA, 10 mM DTT, pH 5.1) a 10 μl of inhibitor (dissolved in DMSO) was added. After 10 min of incubation at room temperature, a 20 μl of 5 mM substrate (N-CBZ-Phe-Arg-AMC, dissolved in DMSO) was added to initiate reaction. Reading is followed up for 10 min at the fluoroscan reader (excitation at 380 nm emission at 460 nm).
(§1) A plot of percentage of inhibition vs inhibitor concentration is obtained, and IC50 is determined using a linear regression calculations (concentration of inhibitor which will give 50% inhibition).

r rat cathepsin L = r rat cathepsin L (Rattus norvegicus, UniProt P07154); assay: In vitro assay for cathepsin L inhibition; assay type: biochemical; details: substrate N-CBZ-Phe-Arg-AMC, pH 5.0, 10 min preincubation
Protocol: After 10 min of incubation at room temperature, a 20 μl of 1 mM substrate (N-CBZ-Phe-Arg-AMC, dissolved in DMSO) was added to initiate reaction. Reading is followed up for 10 min at the fluoroscan reader (excitation at 380 nm emission at 460 nm).
as §1

r cathepsin K = target: T1, r cathepsin K (Homo sapiens, UniProt P43235); assay: In vitro assay for cathepsin K inhibition; assay type: biochemical; details: substrate N-CBZ-Phe-Arg-AMC, pH 5.5, 10 min preincubation
T1 sequence (P43235 115-329): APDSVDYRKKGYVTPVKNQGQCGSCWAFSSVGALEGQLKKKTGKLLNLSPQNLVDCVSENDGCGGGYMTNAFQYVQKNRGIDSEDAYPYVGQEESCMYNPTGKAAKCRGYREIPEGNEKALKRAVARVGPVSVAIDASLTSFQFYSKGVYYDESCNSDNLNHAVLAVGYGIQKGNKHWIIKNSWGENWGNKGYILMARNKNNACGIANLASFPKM
Protocol: To a […] of enzyme-buffer mixture (enzyme: r cathepsin K, diluted to give approximate 30 F units/min, buffer: 100 mM sodium acetate, 5 mM EDTA, 20 mM L-cysteine, 0.01% Brij, pH 5.5) a 10 μl of inhibitor (dissolved in DMSO) was added. After 10 min of incubation at room temperature, a 20 μl of 2.7 mM substrate (N-CBZ-Phe-Arg-AMC, dissolved in DMSO) was added to initiate reaction. Reading is followed up for 10 min at the fluoroscan II plate reader (excitation at 380 nm emission at 460 nm).
as §1

r cathepsin S = r cathepsin S (Homo sapiens, UniProt P25774); assay: In vitro assay for cathepsin S inhibition; assay type: biochemical; details: substrate N-CBZ-Val-Val-Arg-AMC, pH 6.5, 10 min preincubation
Protocol: To a […] of enzyme-buffer mixture (enzyme: r cathepsin S, diluted to give approximate 30 F units/min, buffer: 100 mM sodium phosphate, 1 mM EDTA, 5 mM DTT, 0.01% Brij, pH 6.5) a 10 μl of inhibitor (dissolved in DMSO) was added. After 10 min of incubation at room temperature a […] of 1.2 mM substrate (N-CBZ-Val-Val-Arg-AMC, dissolved in DMSO) was added to initiate reaction. Reading is followed up for 10 min at the fluoroscan 11 plate reader (excitation at 380 nm emission at 460 nm).
as §1

[1] = Pharmacokinetics in mice after single oral dose; assay type: in vivo; parameters: Cl/F: unit not given here; details: single oral dose of 5 mg/kg; for AUC / Cmax / half-life / Vd/F: mouse, in vivo; for Vd/F: read-out: Vz/F
Protocol: Selected compounds of present invention were tested in rodents. This class of compound has favorable pharmacokinetics at the oral dose of 5 mg/kg. The bioavailability is about 60-70%.

Chain of r rat cathepsin B (P00787 80-333): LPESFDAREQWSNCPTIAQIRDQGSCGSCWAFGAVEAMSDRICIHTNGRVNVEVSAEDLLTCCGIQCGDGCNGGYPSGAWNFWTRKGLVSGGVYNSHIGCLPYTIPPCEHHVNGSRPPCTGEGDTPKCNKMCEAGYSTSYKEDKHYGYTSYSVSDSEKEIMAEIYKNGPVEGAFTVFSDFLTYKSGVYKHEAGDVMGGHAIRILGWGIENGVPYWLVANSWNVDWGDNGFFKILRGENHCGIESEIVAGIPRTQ
Chain of r rat cathepsin L (P07154 114-334): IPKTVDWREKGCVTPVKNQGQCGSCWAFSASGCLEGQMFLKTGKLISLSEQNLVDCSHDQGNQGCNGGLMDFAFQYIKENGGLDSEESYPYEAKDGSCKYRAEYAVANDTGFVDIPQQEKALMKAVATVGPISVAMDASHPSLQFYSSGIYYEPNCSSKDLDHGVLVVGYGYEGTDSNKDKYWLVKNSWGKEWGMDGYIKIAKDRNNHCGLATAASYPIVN
Chain of r cathepsin S (P25774 115-331): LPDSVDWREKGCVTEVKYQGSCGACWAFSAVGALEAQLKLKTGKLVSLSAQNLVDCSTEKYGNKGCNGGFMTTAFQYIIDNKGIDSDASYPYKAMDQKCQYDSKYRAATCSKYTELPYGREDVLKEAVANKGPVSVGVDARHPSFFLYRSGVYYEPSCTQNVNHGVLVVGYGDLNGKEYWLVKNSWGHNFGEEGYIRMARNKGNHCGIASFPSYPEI

Question: Which results are given for `CC(C)C[C@H](NC(=O)OCc1ccccc1)C(=O)NC1=CNC(c2ccccc2)NC1=O` (stereo partly drawn) [Example 1, 5-[2-(Benzyloxycarbonyl)amino-2-isobutyl]acetamido-2-phenyl-2,3-dihydopyrimidine-6-(1H)one]?
Answer: IC50 (r rat cathepsin B): 4.01 µM; IC50 (r rat cathepsin L): 460 nM; IC50 (r cathepsin K): 340 nM; IC50 (r cathepsin S): 460 nM

Question: With `CC(C)C[C@H](NC(=O)OCc1ccccc1)C(=O)NC1=CNC(c2ccccc2F)NC1=O` (stereo partly drawn) [Example 2, 5-[2-(Benzyloxycarbonyl)amino-2-isobutyl]acetamido-2-(2-fluorophenyl)-2,3-dihydopyrimidine-6-(1H)one] as the compound, how does the IC50 (r rat cathepsin B) read?
Answer: 8.38 µM

Question: What about the IC50 (r rat cathepsin L) of the same compound?
Answer: 920 nM

Question: And the IC50 (r cathepsin K)?
Answer: 57 nM

Question: What about the IC50 (r cathepsin S) of the same compound?
Answer: 290 nM

Question: What does the source list for `CC(C)C[C@H](NC(=O)OCc1ccccc1)C(=O)NC1=CNC2(CCCC2)NC1=O` [Example 6, 5-[2-(Benzyloxycarbonyl)amino-2-isobutyl]acetamido-2,2-spirocyclopentyl-2,3-dihydopyrimidine-6-(1H)one]?
Answer: IC50 (r rat cathepsin B): 3.16 µM; IC50 (r rat cathepsin L): 1790 nM; IC50 (r cathepsin K): 100 nM; IC50 (r cathepsin S): 480 nM; AUC [1]: 2730 ng·h/mL; Cmax [1]: 3830 ± 3090 ng/mL; half-life [1]: 97.8 ± 28.8 min; Vd/F [1]: 4.49 ± 1.9 L/kg; Cl/F [1]: 0.617 ± 0.08

Question: Which IC50 (r rat cathepsin B) does the source give for `CC(C)C[C@H](NC(=O)OCc1ccccc1)C(=O)NC1=CNC(C(C)(C)C)NC1=O` (stereo partly drawn) [Example 8, 5-[2-(Benzyloxycarbonyl)-amino-2-isobutyl]acetamido-2-tert-butyl-2,3-dihydopyrimidine-6-(1H)one] here?
Answer: 4.56 µM

Question: What about the IC50 (r rat cathepsin L) of the same compound?
Answer: 480 nM

Question: And the IC50 (r cathepsin K)?
Answer: 74 nM

Question: What about the IC50 (r cathepsin S) of the same compound?
Answer: 480 nM

Question: With `CC(C)C[C@H](NC(=O)OCc1ccccc1)C(=O)NC1=CNC(c2ccncc2)NC1=O` (stereo partly drawn) [Example 9, 5-[2-(Benzyloxycarbonyl)-amino-2-isobutyl]acetamido-2-(pyridin-4-yl)-2,3-dihydopyrimidine-6-(1H)one] as the compound, how does the IC50 (r rat cathepsin B) read?
Answer: 2.29 µM

Question: What about the IC50 (r rat cathepsin L) of the same compound?
Answer: 460 nM

Question: And the IC50 (r cathepsin K)?
Answer: 18 nM

Question: And the IC50 (r cathepsin S)?
Answer: 55 nM

Question: With `CC(C)C[C@H](NC(=O)OCc1ccccc1)C(=O)NC1=CNC(CC(C)(C)C)NC1=O` (stereo partly drawn) [Example 10, 5-[2-(Benzyloxycarbonyl)-amino-2-isobutyl]acetamido-2-tert-butylmethyl-2,3-dihydopyrimidine-6-(1H)one] as the compound, how does the IC50 (r rat cathepsin B) read?
Answer: 9.53 µM

Question: And the IC50 (r rat cathepsin L)?
Answer: 2320 nM

Question: What about the IC50 (r cathepsin K) of the same compound?
Answer: 250 nM

Question: What about the IC50 (r cathepsin S) of the same compound?
Answer: 2320 nM

Question: Which results are given for `CC(C)C[C@H](NC(=O)OCc1ccccc1)C(=O)Nc1c[nH]c(=O)[nH]c1=O` [Example 14, 5-[2-(Benzyloxycarbonyl)-amino-2-isobutyl]acetamido Pyrimidin-2,6-dione]?
Answer: IC50 (r rat cathepsin B): > 50 µM; IC50 (r rat cathepsin L): > 50000 nM; IC50 (r cathepsin K): > 50000 nM; IC50 (r cathepsin S): > 50000 nM

Question: Which results are given for `CC(C)C[C@H](NC(=O)CCc1ccccc1)C(=O)NC1=CNC2(CCCC2)NC1=O` [Example 17, 5-[2-(3-Phenylpropionyl)-amino-2-isobutyl]acetamido-2,2-spirocyclopentyl-2,3-dihydopyrimidine-6-(1H)one]?
Answer: IC50 (r rat cathepsin B): > 50 µM; IC50 (r rat cathepsin L): > 50000 nM; IC50 (r cathepsin K): 12100 nM; IC50 (r cathepsin S): 8490 nM

Question: What does the source list for `CC(C)C[C@H](NC(=O)CCc1ccccc1)C(=O)NC1=CNC2(CCCCCC2)NC1=O` [Example 19, 5-[2-(3-Phenylpropionoyl)-amino-2-isobutyl]acetamido-2,2-spirocycloheptyl-2,3-dihydopyrimidine-6-(1H)one]?
Answer: IC50 (r rat cathepsin B): 5.22 µM; IC50 (r rat cathepsin L): 450 nM; IC50 (r cathepsin K): 91 nM; IC50 (r cathepsin S): 68 nM

Question: For `CC(C)C[C@H](NC(=O)OCc1ccccc1)C(=O)NC1=CNC(c2ccco2)NC1=O` (stereo partly drawn) [Example 20, 5-[2-(Benzyloxycarbonyl)amino-2-isobutyl]acetamido-2-(furan-2-yl)-2,3-dihydopyrimidine-6-(1H)one], which IC50 (r rat cathepsin B) is on record?
Answer: 2.35 µM

Question: What about the IC50 (r rat cathepsin L) of the same compound?
Answer: 1500 nM

Question: And the IC50 (r cathepsin K)?
Answer: 45 nM

Question: What about the IC50 (r cathepsin S) of the same compound?
Answer: 94 nM

Question: Which IC50 (r rat cathepsin B) does the source give for `CC(C)C[C@H](NC(=O)c1cc2ccccc2s1)C(=O)NC1=CNC(c2ccccc2F)NC1=O` (stereo partly drawn) [Example 21, 5-[2-(Benzothiophene-2-yl)amino-2-isobutyl]acetamido-2-(2-fluorophenyl)-2,3-dihydopyrimidine-6-(1H)one] here?
Answer: 0.42 µM

Question: What about the IC50 (r rat cathepsin L) of the same compound?
Answer: 170 nM

Question: What about the IC50 (r cathepsin K) of the same compound?
Answer: 14 nM

Question: And the IC50 (r cathepsin S)?
Answer: 37 nM

Question: And the AUC [1]?
Answer: 853 ng·h/mL

Question: And the Cmax [1]?
Answer: 2610 ± 1840 ng/mL

Question: And the half-life [1]?
Answer: 32.4 ± 23.4 min

Question: And the Vd/F [1]?
Answer: 4.49 ± 3.03 L/kg

Question: And the Cl/F [1]?
Answer: 2.09 ± 0.72
